# Source: publication PMC9127186, “Molecular Basis Underlying Hepatobiliary and Renal Excretion of Phenolic Acids of Salvia miltiorrhiza Roots (Danshen)” (Frontiers in Pharmacology, 2022)
# Experiments:
# human BSEP = human BSEP (Homo sapiens, UniProt O95342); experiment: Vesicular transport assay, inside-out membrane vesicles expressing human BSEP; details: positive substrate 20 μM, 10 min; human BSEP
# Experimental: (§1) Inside-out membrane vesicles (5 mg protein/mL), prepared from insect cells expressing human multidrug resistance-associated protein (MRP) 2, MRP3, MRP4, breast cancer resistance protein (BCRP), bile salt export pump (BSEP), and multidrug resistance protein (MDR) one and rat Mrp2, Mrp4, Bcrp, and Bsep, and vesicles (5 mg protein/mL; prepared from the insect cells expressing no ABC transporter; serving as negative control) were obtained from Genomembrane (Kanazawa, Japan).
# (§2) The test Danshen compounds at 100 µM final concentration were separately incubated with the membrane vesicles for 10 min. Buffer C (50 mM MOPS-tris, 70 mM KCl, 7.5 mM MgCl2, pH 7.0) was used for preincubation and incubation, while buffer D (40 mM MOPS-tris, 70 mM KCl, pH 7.0) was used for vesicle washing. The transport rate (pmol/mg protein/min) of the test Danshen compound was calculated using Equation (2): Transport=(CV×VV)/T/WV (2) where C V, V V, T, and W V represent concentration of the compound in vesicular lysates supernatant (μM), volume of the lysates (μL), incubation time (10 min), and amount of vesicle protein amount per well (0.05 mg), respectively. Differential transport of the test Danshen compound between ATP-containing vesicles and AMP-containing vesicles was defined as net transport ratio (TransportATP/TransportAMP ratio). […] All the incubation samples were analyzed by liquid chromatography/mass spectrometry.
# rat Bsep = molecular target: T1, rat Bsep (Rattus norvegicus, UniProt O70127); experiment: Vesicular transport assay, inside-out membrane vesicles expressing rat Bsep; details: positive substrate 20 μM, 10 min; rat Bsep
# T1 sequence (O70127 1-1321): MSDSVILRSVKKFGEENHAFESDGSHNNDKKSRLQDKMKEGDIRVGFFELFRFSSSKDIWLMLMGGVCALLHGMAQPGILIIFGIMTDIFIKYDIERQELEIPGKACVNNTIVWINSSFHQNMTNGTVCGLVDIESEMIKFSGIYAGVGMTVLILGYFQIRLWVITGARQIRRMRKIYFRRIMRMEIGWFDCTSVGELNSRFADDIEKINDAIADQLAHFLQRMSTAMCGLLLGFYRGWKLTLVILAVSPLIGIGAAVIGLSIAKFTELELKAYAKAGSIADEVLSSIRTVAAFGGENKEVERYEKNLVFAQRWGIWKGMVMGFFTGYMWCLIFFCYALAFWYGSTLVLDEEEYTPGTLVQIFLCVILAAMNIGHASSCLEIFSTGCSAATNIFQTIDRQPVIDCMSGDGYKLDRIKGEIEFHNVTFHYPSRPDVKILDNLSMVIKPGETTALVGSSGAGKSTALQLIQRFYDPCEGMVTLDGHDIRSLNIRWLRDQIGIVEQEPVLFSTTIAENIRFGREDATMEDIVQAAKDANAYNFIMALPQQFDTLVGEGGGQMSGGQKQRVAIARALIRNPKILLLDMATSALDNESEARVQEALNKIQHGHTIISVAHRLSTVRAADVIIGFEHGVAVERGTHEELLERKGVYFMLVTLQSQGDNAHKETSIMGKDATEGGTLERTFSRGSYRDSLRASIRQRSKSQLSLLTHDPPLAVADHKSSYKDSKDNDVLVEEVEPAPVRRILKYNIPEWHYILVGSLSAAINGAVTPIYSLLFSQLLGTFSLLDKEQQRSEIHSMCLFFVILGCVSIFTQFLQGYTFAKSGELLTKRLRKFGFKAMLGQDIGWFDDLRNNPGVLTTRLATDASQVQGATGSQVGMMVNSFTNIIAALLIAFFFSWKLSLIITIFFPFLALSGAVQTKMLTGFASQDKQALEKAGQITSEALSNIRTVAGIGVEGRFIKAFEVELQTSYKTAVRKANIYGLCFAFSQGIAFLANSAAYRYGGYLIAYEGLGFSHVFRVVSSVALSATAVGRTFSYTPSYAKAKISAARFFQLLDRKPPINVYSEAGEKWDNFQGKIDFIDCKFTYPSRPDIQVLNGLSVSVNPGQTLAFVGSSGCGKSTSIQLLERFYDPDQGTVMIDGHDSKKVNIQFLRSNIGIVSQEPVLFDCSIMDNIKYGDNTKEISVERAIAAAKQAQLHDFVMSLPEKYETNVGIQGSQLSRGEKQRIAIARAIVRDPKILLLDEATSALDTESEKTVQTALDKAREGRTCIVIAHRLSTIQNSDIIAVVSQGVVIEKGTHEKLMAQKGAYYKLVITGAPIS
# Experimental: as §1, §2
# rat Ntcp = molecular target: T2, rat Ntcp (Rattus norvegicus, UniProt P26435); experiment: Cellular transport assay, HEK-293 cells expressing rat Ntcp; details: positive substrate 20 μM, 10 min; rat Ntcp
# T2 sequence (P26435 1-362): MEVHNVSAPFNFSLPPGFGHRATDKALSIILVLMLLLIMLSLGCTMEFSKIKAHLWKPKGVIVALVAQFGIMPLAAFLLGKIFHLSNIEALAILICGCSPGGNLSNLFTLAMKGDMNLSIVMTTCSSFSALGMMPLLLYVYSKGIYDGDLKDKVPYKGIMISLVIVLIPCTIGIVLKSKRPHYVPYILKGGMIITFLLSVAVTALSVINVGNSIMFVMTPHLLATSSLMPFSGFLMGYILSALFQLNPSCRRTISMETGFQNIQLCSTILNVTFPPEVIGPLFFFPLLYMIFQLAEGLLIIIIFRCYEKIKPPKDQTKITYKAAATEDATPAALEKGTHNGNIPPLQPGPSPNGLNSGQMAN
# human NTCP = molecular target: T3, human NTCP (Homo sapiens, UniProt Q14973); experiment: Cellular transport assay, HEK-293 cells expressing human NTCP; details: positive substrate 20 μM, 10 min; human NTCP
# T3 sequence (Q14973 1-349): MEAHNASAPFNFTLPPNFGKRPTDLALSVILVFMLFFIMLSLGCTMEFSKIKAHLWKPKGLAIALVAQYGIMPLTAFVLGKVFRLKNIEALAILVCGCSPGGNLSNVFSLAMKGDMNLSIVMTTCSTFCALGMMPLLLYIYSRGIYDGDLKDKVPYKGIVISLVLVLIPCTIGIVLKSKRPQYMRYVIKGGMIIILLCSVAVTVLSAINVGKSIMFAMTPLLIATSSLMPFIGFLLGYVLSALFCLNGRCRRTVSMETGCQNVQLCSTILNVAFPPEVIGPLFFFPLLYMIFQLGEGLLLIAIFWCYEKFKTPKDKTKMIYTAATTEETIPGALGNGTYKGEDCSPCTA
# rat Oct3 = molecular target: T4, rat Oct3 (Rattus norvegicus, UniProt O88446); experiment: Cellular transport assay, HEK-293 cells expressing rat Oct3; details: positive substrate 20 μM, 10 min; rat Oct3
# T4 sequence (O88446 1-551): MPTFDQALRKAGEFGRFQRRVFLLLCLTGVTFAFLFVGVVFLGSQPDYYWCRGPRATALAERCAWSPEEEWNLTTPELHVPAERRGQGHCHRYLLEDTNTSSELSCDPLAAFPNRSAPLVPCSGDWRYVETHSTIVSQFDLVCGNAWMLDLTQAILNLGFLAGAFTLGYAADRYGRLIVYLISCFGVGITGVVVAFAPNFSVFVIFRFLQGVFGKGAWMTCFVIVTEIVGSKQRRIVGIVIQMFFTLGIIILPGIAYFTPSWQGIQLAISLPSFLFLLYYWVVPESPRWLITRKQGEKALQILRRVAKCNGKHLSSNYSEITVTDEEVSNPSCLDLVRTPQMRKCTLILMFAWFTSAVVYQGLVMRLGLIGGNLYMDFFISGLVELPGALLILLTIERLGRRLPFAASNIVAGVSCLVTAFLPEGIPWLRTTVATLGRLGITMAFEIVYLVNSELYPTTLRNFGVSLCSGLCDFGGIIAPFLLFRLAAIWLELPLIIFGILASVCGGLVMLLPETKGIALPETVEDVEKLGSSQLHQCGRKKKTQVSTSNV
# rat Octn2 = molecular target: T5, rat Octn2 (Rattus norvegicus, UniProt O70594); experiment: Cellular transport assay, HEK-293 cells expressing rat Octn2; details: positive substrate 20 μM, 10 min; rat Octn2
# T5 sequence (O70594 1-557): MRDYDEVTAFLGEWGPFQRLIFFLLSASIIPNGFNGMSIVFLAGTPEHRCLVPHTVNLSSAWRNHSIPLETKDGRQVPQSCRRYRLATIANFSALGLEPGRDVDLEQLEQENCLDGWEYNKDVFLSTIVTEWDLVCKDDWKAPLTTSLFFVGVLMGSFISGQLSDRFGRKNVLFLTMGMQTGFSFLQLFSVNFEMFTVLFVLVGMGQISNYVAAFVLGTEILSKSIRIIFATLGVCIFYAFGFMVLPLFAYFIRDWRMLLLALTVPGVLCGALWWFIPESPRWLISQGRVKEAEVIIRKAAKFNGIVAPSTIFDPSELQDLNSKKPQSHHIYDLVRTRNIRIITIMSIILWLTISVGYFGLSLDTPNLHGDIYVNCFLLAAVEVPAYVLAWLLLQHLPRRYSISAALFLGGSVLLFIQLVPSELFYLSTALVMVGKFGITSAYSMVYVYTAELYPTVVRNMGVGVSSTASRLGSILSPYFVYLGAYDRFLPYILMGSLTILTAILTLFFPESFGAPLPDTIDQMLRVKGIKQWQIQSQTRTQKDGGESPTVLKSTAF
# human OCT3 = molecular target: T6, human OCT3 (Homo sapiens, UniProt O75751); experiment: Cellular transport assay, HEK-293 cells expressing human OCT3; details: positive substrate 20 μM, 10 min; human OCT3
# T6 sequence (O75751 1-556): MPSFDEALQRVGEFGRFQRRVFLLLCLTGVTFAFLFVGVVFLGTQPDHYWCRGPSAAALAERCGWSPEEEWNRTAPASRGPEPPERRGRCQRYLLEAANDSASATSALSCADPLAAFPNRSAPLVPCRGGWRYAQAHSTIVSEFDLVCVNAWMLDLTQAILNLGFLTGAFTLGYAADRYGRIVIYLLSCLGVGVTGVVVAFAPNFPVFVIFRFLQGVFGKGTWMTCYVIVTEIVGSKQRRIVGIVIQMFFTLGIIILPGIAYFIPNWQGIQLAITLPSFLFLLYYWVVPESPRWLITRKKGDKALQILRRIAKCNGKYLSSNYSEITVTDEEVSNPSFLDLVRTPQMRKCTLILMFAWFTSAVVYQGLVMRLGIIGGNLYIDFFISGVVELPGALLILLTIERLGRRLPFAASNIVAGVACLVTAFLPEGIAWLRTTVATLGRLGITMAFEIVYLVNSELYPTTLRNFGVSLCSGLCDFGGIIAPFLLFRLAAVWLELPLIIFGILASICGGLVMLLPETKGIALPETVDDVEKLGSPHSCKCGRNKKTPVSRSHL
# Chain of human BSEP (O95342 whole entry): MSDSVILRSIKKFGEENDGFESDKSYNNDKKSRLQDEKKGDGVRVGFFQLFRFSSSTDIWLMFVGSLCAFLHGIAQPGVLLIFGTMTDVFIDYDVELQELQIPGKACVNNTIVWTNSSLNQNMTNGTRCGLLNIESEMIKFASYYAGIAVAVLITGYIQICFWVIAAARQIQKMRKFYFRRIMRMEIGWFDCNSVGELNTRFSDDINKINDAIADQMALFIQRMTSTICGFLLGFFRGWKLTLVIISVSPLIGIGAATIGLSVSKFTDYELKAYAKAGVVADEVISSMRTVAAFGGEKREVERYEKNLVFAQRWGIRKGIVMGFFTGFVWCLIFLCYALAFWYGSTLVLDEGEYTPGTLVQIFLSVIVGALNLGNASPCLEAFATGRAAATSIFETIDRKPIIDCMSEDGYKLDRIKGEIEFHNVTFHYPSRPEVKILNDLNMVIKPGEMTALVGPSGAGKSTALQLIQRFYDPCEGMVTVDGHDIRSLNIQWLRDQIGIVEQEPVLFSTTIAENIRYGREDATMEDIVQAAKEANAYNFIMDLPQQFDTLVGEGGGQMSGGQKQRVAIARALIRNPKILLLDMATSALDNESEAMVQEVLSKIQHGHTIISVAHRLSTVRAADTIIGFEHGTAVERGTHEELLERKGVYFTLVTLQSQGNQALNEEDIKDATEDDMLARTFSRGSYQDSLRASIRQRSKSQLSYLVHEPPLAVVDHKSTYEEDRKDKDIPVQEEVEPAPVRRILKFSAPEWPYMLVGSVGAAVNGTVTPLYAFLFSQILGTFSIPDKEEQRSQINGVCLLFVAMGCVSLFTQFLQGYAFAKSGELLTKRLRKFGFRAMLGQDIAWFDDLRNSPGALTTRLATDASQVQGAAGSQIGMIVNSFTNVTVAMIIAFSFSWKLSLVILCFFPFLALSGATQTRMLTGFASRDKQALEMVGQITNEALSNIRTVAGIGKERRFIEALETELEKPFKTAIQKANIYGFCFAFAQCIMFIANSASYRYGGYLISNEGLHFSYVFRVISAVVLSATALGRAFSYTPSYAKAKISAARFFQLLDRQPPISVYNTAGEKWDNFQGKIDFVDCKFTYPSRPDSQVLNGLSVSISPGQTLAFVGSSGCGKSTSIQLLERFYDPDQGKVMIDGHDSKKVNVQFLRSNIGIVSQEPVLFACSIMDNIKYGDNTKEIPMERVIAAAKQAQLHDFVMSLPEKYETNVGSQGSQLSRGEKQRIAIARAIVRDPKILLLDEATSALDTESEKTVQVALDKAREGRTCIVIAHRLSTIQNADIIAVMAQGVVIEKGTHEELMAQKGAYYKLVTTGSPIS
smiles,measurement,setting,value
"C[C@H](CCC(=O)NCCS(=O)(=O)O)[C@H]1CC[C@H]2[C@@H]3[C@H](O)C[C@@H]4C[C@H](O)CC[C@]4(C)[C@H]3C[C@H](O)[C@]12C [TCA, taurocholic acid, reference compound]","TransportATP/TransportAMP ratio, positive substrate",human BSEP,4.03 ± 0.89 (TCA)
same,"TransportATP/TransportAMP ratio, positive substrate",rat Bsep,5.14 ± 0.88 (TCA)
same,"TransportTC/TransportMC ratio, positive substrate",rat Ntcp,134 ± 15 (TCA)
same,"TransportTC/TransportMC ratio, positive substrate",human NTCP,144 ± 30 (TCA)
"CC[N+](CC)(CC)CC [TEA, tetraethylammonium, reference compound]","TransportTC/TransportMC ratio, positive substrate",rat Oct3,3.90 ± 0.88 (TEA)
same,"TransportTC/TransportMC ratio, positive substrate",rat Octn2,9.85 ± 0.74 (TEA)
same,"TransportTC/TransportMC ratio, positive substrate",human OCT3,4.45 ± 0.27 (TEA)
